Source: patent US20230265405A1, “ENGINEERED NUCLEASES AND METHODS OF USE THEREOF” (Massachusetts Institute of Technology, priority 2022, published 2023)
Where two headings read alike, the source gives them in different places.

Experiments:
Assay type in all cases: cell-based, human
[1] = test system: several loci in HEK293T cells; test: Prime editing with pegRNAs without nicking gRNAs (single-nicking, PE2) at several loci, deep sequencing; conditions: for indel frequencies: all loci; for precise editing frequencies (mean): mean across several loci; for precise editing frequencies: range across several loci
Method: Considering this broad suppression of all indel types, we also studied whether vPE reduced indel frequency at several loci in HEK293T cells using pegRNAs without nicking gRNAs (single-nicking prime editing, or PE2).
(§1) Cells were seeded in the maintenance medium without Pen-Strep into 24-well plates at 100,000 cells/well or 48-well plates at 50,000 cells/well. […] Transfections of HEK293T with prime editing vectors were carried out 24 hrs after seeding using 475 ng PE expression vector, 114 ng pegRNA expression vector, and 144 ng nicking gRNA expression vector (for PE3) formulated with 1.47-1.83 μL (equal volume/DNA) Lipofectamine 2000 at a total volume of 58.9-73.3 μL (equal DNA concentration) in OptiMEM I (ThermoFisher) per well for 24-well plates, or half these volumes for 48-well plates. For sequencing assays, genomic DNA was extracted 72 hrs after transfection using QuickExtract (Epicentre). For flow cytometry assays, cells were transferred to 6-well plates 72 hrs after transfection, split 7 days after transfection, and harvested 10 days after transfection in PBS with 5% FBS (ThermoFisher). Repair templates, listed in Supplementary Table 4, were synthesized by IDT.
(§2) The targeted loci were amplified from extracted genomic DNA by PCR using Herculase II polymerase (Agilent). The PCR primers included Illumina sequencing handles as well as replicate-specific barcodes. These PCR products were then tagged with sample-specific barcodes and sequenced on an Illumina MiSeq. Primers, listed in Supplementary Table 5, were synthesized by IDT.
(§3) To measure editing outcomes, the high-throughput sequencing data were analyzed using CRISPResso2 25. Total editing rates were quantified as the fraction of edited reads out of total sequencing reads. Indel rates were quantified as the fraction of reads containing indels out of total sequencing reads. Precise editing rates were quantified as the fraction of reads containing a perfect match to the expected edit out of total sequencing reads. Frequencies of specific indel sizes were quantified as the fraction of reads containing these sizes out of all edited reads. Depletion of specific indel sizes by templated repair was quantified as the fractional reduction in the frequency of that indel size, comparing frequencies for when a template was present versus absent. Mean indel sizes were calculated as the mean of the absolute values of indel sizes weighted by their indel fractions.

[2] = test system: several loci in HEK293T cells; test: Prime editing with pegRNAs and nicking gRNAs (double-nicking, PE3) at several loci, deep sequencing; conditions: for precise editing frequencies (mean): mean across several loci; for precise editing frequencies: range across several loci
Method: We compared PEmax and PE for creating small edits at the EMX1, GFP, KRAS, and MYC loci in HEK293T cells.
(§4) We next examined whether vPE produces precise editing by again applying prime editing to convert a GFP transgene to BFP. […] As prime editors can produce indels without the prime edit, with the prime edit, or with the prime edit and pegRNA scaffold incorporation (Chen et al. Cell 184, 5635-5652.e29 (2021)), we further determined how these different indel types were affected.
as §1, §2, §3

[3] = test system: GFP transgene; test: Prime editing GFP to BFP conversion with pegRNA and nicking gRNA, flow cytometry
Description: (§5) We tested these engineered variants by applying prime editing with a pegRNA and nicking gRNA to convert a GFP transgene to BFP, similar to the HDR assay.
as §4
Flow cytometry analysis was performed on an LSR Fortessa analyzer and data was collected using FACSDiva (BD Biosciences). Cells were first gated comparing SSC-A and FSC-A, then SSC-H and SSC-W, then FSC-H and FSC-W parameters to select for single cells. To assess editing frequencies, cells were gated for GFP (488 nm laser excitation, 530/30 nm filter detection) and BFP (405 nm laser excitation, 450/50 nm filter detection). To profile cell cycle stage, cells were gated for propidium iodide (561 nm laser excitation, 610/20 nm filter detection) and Alexa Fluor 647 (640 nm laser excitation, 670/30 nm filter detection). Flow cytometry data were analyzed using FlowJo (FlowJo).

[4] = test system: KRAS locus in HEK293T cells; test: Prime editor variant screen with pegRNA and nicking gRNA (PE3), deep sequencing
Method: To measure precise editing and indel frequencies for these mutants, we combined them with a pegRNA and nicking gRNA (double-nicking prime editing, or PE3) that produces a small sequence replacement at the KRAS locus in HEK293T cells by prime editing and analyzed alterations using deep sequencing of the amplified locus.
as §5
as §1, with “Repair templates, listed in Supplementary Table 4, were synthesized by IDT.” left out

[5] = vPE versus PE, range across loci

| Substance | indel frequencies [1] | precise editing frequencies (mean) [1] [%] | precise editing frequencies [1] | precise editing frequencies (mean) [2] [%] | precise editing frequencies [2] | indels and precise editing, GFP to BFP conversion [3] | indels and precise editing, GFP to BFP conversion ([3]; listed as K848A-H982A) | precision, rank among PE variants [4] | precise editing frequency and indel frequency relative to PE ([4]; dual-mutation variants, KRAS locus) | indel types [1] | suppression of indel frequency (mean) ([1]; vPE versus PE, mean) [fold] | suppression of indel frequency [1, 5] | indels resulting from prime editing ([2]; all loci) | frequencies of each indel type ([2]; indels without prime edit, with prime edit, with pegRNA scaffold incorporation) | suppression of indel frequency (mean) ([2]; vPE versus PE, mean) [fold] | suppression of indel frequency [2, 5] |
| --- | --- | --- | --- | --- | --- | --- | --- | --- | --- | --- | --- | --- | --- | --- | --- | --- |
| PE: Prime editor: variant of PEmax with the R221K and N394K mutations reverted; SEQ ID NO: 293 (nucleic acid 286) | fairly low indel frequencies | 82.7 | 72.3-98.2% | 49.1 | 14.7-69.8% | – | – | – | – | – | – | – | – | – | – | – |
| vPE: PE prime editor with K848A-H982A in the Cas9 nickase, SEQ ID NO: 294 | lower indel frequencies | 90.5 | 84.2-98.4% | 82.5 | 57.7-97.4% | efficient precise gene conversion with limited indels | nearly eliminated indels while promoting precise editing | most precise variant | increased precise editing frequency and reduced indel frequency | reductions in all indel types | 1.7 | 1.1- to 2.5 fold | nearly eliminated indels | decreasing the frequencies of each indel type | 4.7 | 2.0- to 13.0 fold |
